Where two headings read alike, the source gives them in different places.
Key:
[1] = tested on: RPMI 8226 cells
[2] = tested on: MCF7 cells
Description: (§4) The cells were incubated at 37° C. in a humidified atmosphere with 5% CO2.
(§5) 100 μL of cells were added to each well of a 96 well microtiter plate at a concentration of 4×10^4 cells/mL and incubated overnight to allow proper adhesion. (RPMI 8226 cells were plated at 4×10^5 cells/mL). The cells were treated with the panel of test compounds at a series of concentrations, along with vehicle control DMSO and untreated cells as controls. After 48 h incubation, 20 μL of MTT reagent (3-(4,5-dimethylthiazol-2-yl)-2,5-diphenyltetrazolium bromide) in PBS (5 mg/mL) was added to each well of the plates. The plate was incubated for 2 h at 37° C. For adherent cell lines, the media was removed from each well of the plate and the resulting formazan crystals dissolved in 100 μL of DMSO. For RPMI 8226 cells, 200 ul of DMF/SDS mix (50% DMF. 10% w/v SDS pH<4) was used to solubilize the formazan crystals. Optical density (OD) at 490 nm was measured using a microplate reader. Cells treated with 1 μM phenyl arsine oxide (PAO) served as a positive cell-killing control. Technical replicates of these assays were performed in biological quadruplicate, and the three best values were used for analysis in order to eliminate outliers. Data presented are the average IC50 value calculated from at least 3 technical replicates with the corresponding standard deviation.

[3] = biological target: T1, trypsin-like activity of the 26S proteasome (Homo sapiens, UniProt Q99436); test: Proteasome assay, trypsin-like (T-L) activity, SUC-RLR-AMC, Jurkat cell lysate; assay type: biochemical; settings: Table 3, P2/P3 analogues; ± S.D.; read-out: Proteasome Inhibition T-L-like IC50
T1 construct: endogenous in cells; host or cells: Jurkat (ATCC TIB-152, E6-1 clone) cell lysate
T1 sequence (Q99436 44-277): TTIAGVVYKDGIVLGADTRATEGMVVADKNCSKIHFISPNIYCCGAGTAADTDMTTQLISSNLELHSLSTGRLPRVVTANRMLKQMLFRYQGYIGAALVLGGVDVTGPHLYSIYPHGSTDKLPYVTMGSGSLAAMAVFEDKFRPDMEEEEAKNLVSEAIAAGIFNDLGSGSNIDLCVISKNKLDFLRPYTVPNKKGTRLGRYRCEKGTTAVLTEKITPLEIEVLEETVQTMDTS
Description: (§1) The lysate was stored at −80° C. until the sample was used for the proteasome assay.
(§2) The compounds were diluted with lysis buffer; 10 μL of the compound-containing solution was added to the test wells at ten times the final concentration. […] The results are reported as the average of at least 3 technical replicates of IC50 values for proteasome inhibition.

[4] = tested on: MDA-MB-231 cells
[5] = biological target: T2, chymotrypsin-like activity of the 26S proteasome (Homo sapiens, UniProt P28074); test: Proteasome assay, chymotrypsin-like (ChT-L) activity, Suc-LLVY-AMC, Jurkat cell lysate; assay type: biochemical; settings: ± S.D., read-out: Proteasome Inhibition ChT-like IC50
T2 construct: endogenous in cells; host or cells: Jurkat (ATCC TIB-152, E6-1 clone) cell lysate
T2 sequence (P28074 60-263): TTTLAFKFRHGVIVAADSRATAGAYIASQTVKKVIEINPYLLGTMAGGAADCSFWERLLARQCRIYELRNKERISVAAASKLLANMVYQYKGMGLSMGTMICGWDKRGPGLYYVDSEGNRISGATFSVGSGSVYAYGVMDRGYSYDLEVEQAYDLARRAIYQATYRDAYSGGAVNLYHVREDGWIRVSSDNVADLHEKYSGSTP
Description: as §1, §2

[6] = tested on: cancer cells (MCF7, MDA-MB-231, RPMI 8226)
Description: as §5

[7] = biological target: T3, immunoproteasome iβ5 subunit (Homo sapiens, UniProt P20618+P28062); test: Subunit selectivity, purified immunoproteasome iβ5; assay type: biochemical; settings: 8 μg/mL purified iCP; ± SD; read-out: iβ5 IC50
T3 construct: purchased Enzo Life Sciences
Description: as §2
(§3) Values and standard deviations were calculated from an assay performed in biological triplicate.

[8] = biological target: T4, yeast proteasome yβ2 subunit (Saccharomyces cerevisiae, UniProt P25043+P25451); test: Subunit selectivity, purified yeast proteasome yβ2; assay type: biochemical
T4 construct: measured using 8 μg/mL of purified yCP or iCP
Description: as §2, §3

[9] = tested on: RPMI 8226 cells; test: MTT assay cytotoxicity RPMI 8226; settings: Homo sapiens
[10] = tested on: cancer cells (MCF7, MDA-MB-231, RPMI 8226); test: MTT cytotoxicity, cell line not given
[11] = tested on: MCF7 cells; test: MTT assay cytotoxicity MCF7; settings: Homo sapiens
Description: as §4, §5

[12] = tested on: MDA-MB-231 cells; test: MTT assay cytotoxicity MDA-MB-231; settings: Homo sapiens
[13] = biological target: T5, yeast proteasome yβ5 subunit (Saccharomyces cerevisiae, UniProt P23724+P30656); test: Subunit selectivity, purified yeast proteasome yβ5; assay type: biochemical
T5 construct: measured using 8 μg/mL of purified yCP or iCP
Description: as §2, §3

[14] = biological target: T6, yeast proteasome yβ1 subunit (Saccharomyces cerevisiae, UniProt P25043+P38624); test: Subunit selectivity, purified yeast proteasome yβ1; assay type: biochemical
T6 construct: measured using 8 μg/mL of purified yCP or iCP
Description: as §2, §3

[15] = RPMI-8226, 48 h, read-out: Cytotoxicity RPMI 8226 IC50
[16] = MCF7, 48 h, read-out: Cytotoxicity MCF7 IC50
[17] = MDA-MB-231, 48 h, read-out: Cytotoxicity MDA-MB-231 IC50

| Compound | IC50 [3] | IC50 [7] | IC50 [8] | IC50 [9, 15] | IC50 [11, 16] | IC50 [12, 17] | IC50 [13] | IC50 [14] | other results |
| --- | --- | --- | --- | --- | --- | --- | --- | --- | --- |
| CC[C@H](C)[C@@H]1C(=O)O[C@H]1C(=O)N[C@H](C(=O)N[C@@H](CC(C)C)C(=O)OCc1ccccc1)C(C)C [Compound 10i, Benzyl((2R,3S)-3-((S)-sec-butyl)-4-oxooxetane-2-carbonyl)-L-valyl-L-leucinate] | 1350 ± 172 nM | – | – | – | – | – | – | – | IC50 [1]: 156 ± 96 nM; IC50 [2]: 351 ± 31 nM; IC50 [4]: 287 ± 136 nM; IC50 ([5]; Table 3, P2/P3 analogues): 7.8 ± 1.6 nM; cytotoxicity IC50 for all three cell lines tested (in words) [6]: midrange nanomolar |
| CC[C@H](C)[C@@H]1C(=O)O[C@H]1C(=O)N[C@H](C(=O)N[C@@H](COCc1ccccc1)C(=O)OCc1ccccc1)C(C)C [Compound 10k, Benzyl O-benzyl-N-(((2R,3S)-3-((S)-sec-butyl)-4-oxooxetane-2-carbonyl)-L-valyl)-L-serinate] | 1340 ± 334 nM | 9.1 ± 2.7 nM | > 50000 nM | 50 ± 28 nM | 284 ± 132 nM | 90 ± 51 nM | 24.5 ± 3.9 nM | 17800 ± 2070 nM | IC50 ([9]; RPMI-8226, read-out: Cytotoxicity RPMI 8226 IC50): 40.5 ± 1.66 nM; cytotoxicity IC50 for all three cell lines tested (in words) [10]: midrange nanomolar; times less cytotoxic than carfilzomib [10]: about 10 times; IC50 ([11]; MCF7, read-out: Cytotoxicity MCF7 IC50): 178 ± 23.4 nM; IC50 ([12]; MDA-MB-231, read-out: Cytotoxicity MDA-MB-231 IC50): 75.6 ± 3.49 nM |
| CC[C@H](C)[C@@H]1C(=O)O[C@H]1C(=O)N[C@H](C(=O)N[C@H](C(=O)NCc1ccccc1)C(C)C)C(C)C [Compound 11e, (2R,3S)—N—((S)-1-(((S)-1-(benzylamino)-3-methyl-1-oxobutan-2-yl)amino)-3-methyl-1-oxobutan-2-yl)-3-((S)-sec-butyl)-4-oxooxetane-2-carboxamide] | – | – | 2920 ± 210 nM | 387 ± 177 nM | 814 ± 121 nM | 742 ± 212 nM | 5.4 ± 0.5 nM | 1380 ± 106 nM | IC50 ([5]; Table 4, P4 analogues): 4.5 ± 2.9 nM |
| CC(C)C1C(=O)OC1C(=O)N[C@H](C(=O)N[C@H](C(=O)O)C(C)C)C(C)C (some centres unmarked) [CysB, Cystargolide B, reference compound] | – | 681 ± 177 nM | – | – | – | – | – | – | IC50 ([8]; 8 μg/mL purified yCP, ± SD, read-out: yβ2 IC50): 61600 ± 4840 nM; IC50 ([14]; 8 μg/mL purified yCP, ± SD, read-out: yβ1 IC50): 10200 ± 780 nM |
